Source: PubChem BioAssay (NCI)
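Where inhibition never reached the appropriate level, the endpoint shown equals the highest concentration tested. Otherwise, values were interpolated linearly from a five-concentration, 48-hour dose response in 96-well plates. GI50 marks 50% less growth. Definition used: TGI = concentration required for complete inhibition of growth.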

What was measured:
Test in all cases: inhibition of tumour cell growth, NCI panel, 48 h
[1] = tested on: SN12C renal
[2] = tested on: OVCAR-8 ovarian
[3] = tested on: LOX IMVI melanoma
[4] = tested on: K-562 leukemia
[5] = tested on: HS 578T breast
[6] = tested on: CAKI-1 renal
[7] = tested on: NCI-H522 lung
[8] = tested on: MALME-3M melanoma
[9] = tested on: M14 melanoma
[10] = tested on: U251 CNS
[11] = tested on: NCI-H226 lung
[12] = tested on: NCI-H23 lung
[13] = tested on: HCC-2998 colon
[14] = tested on: EKVX NSCLC
[15] = tested on: HCT-15 colon
[16] = tested on: SK-MEL-28 melanoma
[17] = tested on: MDA-MB-231 breast
[18] = tested on: BT-549 breast
[19] = tested on: RPMI-8226 leukemia
[20] = tested on: HOP-92 NSCLC
[21] = tested on: HCT-116 colon
[22] = tested on: OVCAR-5 ovarian
[23] = tested on: OVCAR-4 ovarian
[24] = tested on: HL-60(TB) leukemia
[25] = tested on: RXF 393 renal
[26] = tested on: SF-295 CNS
[27] = tested on: MCF7 breast
[28] = tested on: DU-145 prostate
[29] = tested on: SNB-75 CNS
[30] = tested on: NCI/ADR-RES ovarian
[31] = tested on: T-47D breast
[32] = tested on: HT29 colon
[33] = tested on: SF-539 CNS
[34] = tested on: UACC-62 melanoma
[35] = tested on: A549 NSCLC
[36] = tested on: PC-3 prostate
[37] = tested on: UO-31 renal
[38] = tested on: TK-10 renal
[39] = tested on: 786-0 renal
[40] = tested on: SK-OV-3 ovarian
[41] = tested on: COLO 205 colon
[42] = tested on: SNB-19 CNS
[43] = tested on: A498 renal
[44] = tested on: SK-MEL-2 melanoma
[45] = tested on: OVCAR-3 ovarian
[46] = tested on: SK-MEL-5 melanoma
[47] = tested on: IGROV1 ovarian
[48] = tested on: KM12 colon
[49] = tested on: CCRF-CEM leukemia
[50] = tested on: MDA-MB-468 breast
[51] = tested on: SF-268 CNS
[52] = tested on: ACHN renal
[53] = tested on: UACC-257 melanoma
[54] = tested on: HOP-62 NSCLC
[55] = tested on: MDA-MB-435

Cn1cc(-c2cc(N)n3nc(-c4c[nH]c5ccccc45)cc3n2)c2cc(Br)cnc21
GI50 [1]: 5.02 µM | TGI [1]: 21.1 µM | GI50 [2]: 3.22 µM | TGI [2]: 15.2 µM | GI50 [3]: 1.64 µM | TGI [3]: 2.99 µM | GI50 [4]: 2.88 µM | TGI [4]: > 100 µM | GI50 [5]: 2.61 µM | TGI [5]: 14.9 µM | GI50 [6]: 1.69 µM | TGI [6]: 3.87 µM | GI50 [7]: 1.84 µM | TGI [7]: 3.67 µM | GI50 [8]: 2.14 µM | TGI [8]: 4.52 µM | GI50 [9]: 1.91 µM | TGI [9]: 3.87 µM | GI50 [10]: 2.02 µM | TGI [10]: 4.53 µM | GI50 [11]: 3.29 µM | TGI [11]: 16.3 µM | GI50 [12]: 1.87 µM | TGI [12]: 4.16 µM | GI50 [13]: 1.65 µM | TGI [13]: 3.08 µM | GI50 [14]: 3.14 µM | TGI [14]: 13.7 µM | GI50 [15]: 1.7 µM | TGI [15]: 3.51 µM | GI50 [16]: 2.18 µM | TGI [16]: 5.6 µM | GI50 [17]: 1.79 µM | TGI [17]: 3.91 µM | GI50 [18]: 4.1 µM | TGI [18]: 18 µM | GI50 [19]: 3.07 µM | TGI [19]: 10.5 µM | GI50 [20]: 1.65 µM | TGI [20]: 3.44 µM | GI50 [21]: 1.82 µM | TGI [21]: 3.39 µM | GI50 [22]: 1.82 µM | TGI [22]: 4.94 µM | GI50 [23]: 2.7 µM | TGI [23]: 9.4 µM | GI50 [24]: 2.01 µM | TGI [24]: 4.67 µM | GI50 [25]: 2.54 µM | TGI [25]: 6.15 µM | GI50 [26]: 1.81 µM | TGI [26]: 3.87 µM | GI50 [27]: 1.95 µM | TGI [27]: 4.58 µM | GI50 [28]: 3.58 µM | TGI [28]: 12.2 µM | GI50 [29]: 1.7 µM | TGI [29]: 17.1 µM | GI50 [30]: 2.21 µM | TGI [30]: 5.16 µM | GI50 [31]: 3.22 µM | TGI [31]: 14.3 µM | GI50 [32]: 1.8 µM | TGI [32]: 3.61 µM | GI50 [33]: 1.67 µM | TGI [33]: 3.11 µM | GI50 [34]: 1.66 µM | TGI [34]: 3.28 µM | GI50 [35]: 2.78 µM | TGI [35]: 11.1 µM | GI50 [36]: 2.41 µM | TGI [36]: 7.91 µM | GI50 [37]: 2.48 µM | TGI [37]: 10.6 µM | GI50 [38]: 2.69 µM | TGI [38]: 6.3 µM | GI50 [39]: 1.81 µM | TGI [39]: 3.45 µM | GI50 [40]: 5.91 µM | TGI [40]: 34.8 µM | GI50 [41]: 1.96 µM | TGI [41]: 3.59 µM | GI50 [42]: 2.76 µM | TGI [42]: 8.76 µM | GI50 [43]: 4.9 µM | TGI [43]: 19.1 µM | GI50 [44]: 1.99 µM | TGI [44]: 4.48 µM | GI50 [45]: 1.74 µM | TGI [45]: 3.37 µM | GI50 [46]: 3.46 µM | TGI [46]: 13.9 µM | GI50 [47]: 3.29 µM | TGI [47]: 13.2 µM | GI50 [48]: 1.79 µM | TGI [48]: 3.98 µM | GI50 [49]: 3.71 µM | TGI [49]: > 100 µM | GI50 [50]: 2.23 µM | TGI [50]: 5.42 µM | GI50 [51]: 2.42 µM | TGI [51]: 7.66 µM | GI50 [52]: 2.17 µM | TGI [52]: 6.21 µM | GI50 [53]: 3.5 µM | TGI [53]: 18.4 µM | GI50 [54]: 2.12 µM | TGI [54]: 5.44 µM | GI50 [55]: 1.93 µM | TGI [55]: 3.96 µM

C=C1C(=O)O[C@H]2[C@H]1CC/C(COC(=O)c1ccc(C(=O)O)s1)=C\CC[C@@]1(C)O[C@@H]21
GI50 [50]: 1.22 µM | TGI [50]: 3.09 µM

CN(C)CCNc1cccc2sc3ccc(O)cc3c(=O)c12
GI50 [50]: 1.96 µM | TGI [50]: 4.56 µM

O=C(/C=C/c1ccc([N+](=O)[O-])o1)NNC(=O)c1cc2ccccc2cc1O
GI50 [50]: 0.721 µM | TGI [50]: 3.59 µM

CCCCc1cc(O)ccc1O
GI50 [50]: 14 µM | TGI [50]: 31.7 µM
